# Test results: patent US20210023029A1, “EDASALONEXENT DOSING REGIMEN FOR TREATING MUSCULAR DYSTROPHY” (Catabasis Pharmaceuticals, Inc., priority 2017, published 2021)
# Entries after “also recorded” stand apart in the source; their conditions may differ.
# What was measured:
# [1] = test system: NF-κB regulated and inflammation-related gene transcripts; assay: MoveDMD trial: NF-κB regulated and inflammation-related gene transcripts in whole blood (RNA sequencing); assay type: in vivo, human; settings: one week treatment
# Protocol: To determine the effects of a given edasalonexent dosing regimen on NF-κB inhibition, the expression levels of a number of NF-κB regulated and inflammation-related gene transcripts were measured in whole blood samples from DMD patients.
# NF-kB regulated and inflammation-related genes were chosen from the Broad Institute's HALLMARK TNF/NF-kB gene set (Liberzon, et. al., (2015), Cell Systems, 1(6):417-425). Blood was drawn from DMD boys before and one-week after edasalonexent treatment, and collected into PAXgene RNA tubes (Qiagen). RNA was extracted and sequenced to directly measure the abundance of transcripts in whole blood for both time points in each patient, and the abundance of transcripts one-week post treatment was compared to pre-treatment values to determine the relative change in each of the selected transcripts. This ratio for each gene across all patients within a dose cohort was averaged and is shown in FIG. 12 by columns as average +/−SEM. A value less than 1 indicates a decrease in the transcripts after one-week treatment with edasalonexent.
# boys with DMD = assay: MoveDMD trial: MRI-T2 and MR spectroscopy fat fraction of leg muscles; assay type: in vivo, human
# Description: The MR transverse relaxation time constant assessed by MRI (MRI-T2; also referred to as bulk T2) is sensitive to several pathophysiological features of disease pathology in DMD, including muscle damage, inflammation, and fat infiltration and provides a method for monitoring disease pathology over a wide age range. Furthermore, the proportion of fat infiltration in the muscle (fat fraction), measured using the gold standard, proton MRS (^1H-MRS), or a 3-point Dixon imaging technique, is associated with disease progression and correlates with performance on functional tests. (Willcocks et al., (2016), ANN. NEUROL., 79(4):535-47; Barnard et al., (2018), PLoS ONE, 13(3):E0194283). These are non-invasive measures of disease progression in DMD that are elevated and increase with age; changes in these measures strongly correlate with changes in function and predict future loss of functional milestones. […] The MRI-T2 value was a composite of 5 lower leg muscles. Stabilization of MRI-T2 values is consistent with the concomitant slowing of DMD disease progression observed through the functional assessments discussed previously.
# mdx mice = assay: Quadriceps muscle inflammation and fibrosis in young mdx mice treated four weeks (H&E and picrosirius red staining); assay type: in vivo
# Protocol: Young mdx mice were treated for four weeks with varying dosing regimens of edasalonexent. The mdx mouse is a useful and generally accepted animal model for studying Duchenne muscular dystrophy (DMD) (Mann et al. (2001) PROC. NATL. ACAD. SCI. 98(1):42-7). mdx mice are deficient in expression of full-length dystrophin due to a genetic mutation within the dystrophin gene.
# Mice were administered edasalonexent in their diet, and/or by oral gavage. Specifically, mice were administered 1% edasalonexent in their diet, 450 mg/kg/day delivered orally as single daily dose, 450 mg/kg/day delivered orally as three equally divided doses, and/or 600 mg/kg/day delivered orally as two 150 mg/kg/doses and one 300 mg/kg/dose. For dosing regimens with three daily doses, doses were delivered at 7:00 am, noon and 5:00 pm.
# The dosing regimens for each treatment group are depicted in TABLE 4. Each treatment group included 10-11 mice.
# Animals were treated for four weeks, sacrificed, and tissues were collected for histological analysis. For assessment of inflammation and fibrosis, quadriceps muscles were processed for hematoxylin and eosin (H&E) and picrosirius red (collagen) histochemical staining. From each animal, 2-4 complete transverse sections were digitally analyzed using ImageJ, with the hematoxylin-stained nuclear area determined as a measure of inflammatory infiltration, and the picrosirius red-stained area determined as a measure of fibrosis.
# [2] = after 48 weeks receiving 100 mg/kg/day
# [3] = group 2, 1% edasalonexent in diet
# [4] = group 4, oral QD 450 mg/kg/dose
# [5] = group 7, oral TID 150/150/300 mg/kg/dose = 600 mg/kg/day
smiles,measurement,setting,value
"CC/C=C\C/C=C\C/C=C\C/C=C\C/C=C\C/C=C\CCC(=O)NCCNC(=O)c1ccccc1O [edasalonexent, N-(2-[(4Z,7Z,10Z,13Z,16Z,19Z)-docosa-4,7,10,13,16,19-hexaenamido]ethyl)-2-hydroxybenzamide]","change in 24 NF-κB regulated and inflammation-related gene transcripts, Day 7 versus Day 1",[1]; 33 mg/kg/day,decreases were generally not noted
same,"change in 24 NF-κB regulated and inflammation-related gene transcripts, Day 7 versus Day 1",[1]; 67 mg/kg/day,not so pronounced
same,"change in 24 NF-κB regulated and inflammation-related gene transcripts, Day 7 versus Day 1",[1]; 100 mg/kg/day,statistically significant decrease in all 24 transcripts; also recorded: most effective
same,annualized rate of change of MRI-T2 values (composite of 5 lower leg muscles),boys with DMD; 100 mg/kg/day treatment period (60 weeks) versus off-treatment period (36 weeks),significantly improved
same,"change in fat fraction, soleus (MR spectroscopy)",boys with DMD; [2],0.85%
same,"change in fat fraction, vastus lateralis (MR spectroscopy)",boys with DMD; [2],5.9%
same,quadriceps muscle fibrosis (picrosirius red-stained area),mdx mice; [3],reduced
same,quadriceps muscle inflammation (hematoxylin-stained nuclear area),mdx mice; [3],reduced
same,quadriceps muscle fibrosis (picrosirius red-stained area),mdx mice; [4],did not cause a significant reduction
same,quadriceps muscle inflammation (hematoxylin-stained nuclear area),mdx mice; [4],did not cause a significant reduction
same,quadriceps muscle fibrosis (picrosirius red-stained area),mdx mice; [5],further drove efficacy
same,quadriceps muscle inflammation (hematoxylin-stained nuclear area),mdx mice; [5],further drove efficacy
